Experimental findings from patent publication US20220235049A1, “SUBSTITUTED PYRROLO [2, 3-b] PYRIDINE AND PYRAZOLO [3,4-b] PYRIDINE DERIVATIVES AS PROTEIN KINASE INHIBITORS” (Fochon Pharmaceuticals, Ltd., priority 2019, published 2022) are described below.

SMILES strings stand for the structures.

The assay relates to DOHH2 cells. The assay can be described thus: Cell proliferation assay in DOHH2 cells (MTS). In kind it is cell-based. The following applies: Homo sapiens, DOHH-2, 120 h. The method, then: To investigate whether a compound is able to inhibit the activity of BTK in cells, a mechanism-based assay using DOHH2 (DSMZ catalog #: ACC47) cell was developed. In this assay, inhibition of BTK was detected by the inhibition of DOHH2 cells proliferation. Cells were collected and plated onto 96-well plates at the optimized cell density (5000 cells/well). Plates were incubated at 37° C., with 5% CO2 for 4 h. Compounds were serially diluted and added to the plates with the final concentrations as 10000, 3333.3, 1111.1, 370.4, 123.5, 41.2, 13.7, 4.6 and 1.5 nM. Plates were incubated at 37° C., with 5% CO2 for 120 h. An aliquot of 20 μL MTS/100 μL medium mixture solution were added to each well and the plates were incubated for exactly 2 h. The reaction was stopped by adding 25 μL 10% SDS to each well. The absorbance was measured by a microplate reader at 490 nm and 650 nm (reference wavelength). IC50 was calculated using GraphPad Prism 5.0.
Select compounds prepared as described above were assayed according to the biological procedures described herein.
Turning to `Cc1nc(Oc2ccccc2)ccc1C(=O)c1c[nH]c2nccc(N[C@@H]3CC[C@@H](CO)OC3)c12` [Example 41, (4-(((3R,6S)-6-(hydroxymethyl)tetrahydro-2H-pyran-3-yl)amino)-1H-pyrrolo[2,3-b]pyridin-3-yl)(2-methyl-6-phenoxypyridin-3-yl)methanone], the half-inhibitory concentration (IC50) (in general, the concentration that gives 50% inhibition) came out at 53 nM.
Next, `O=C(c1c(F)cc(Oc2ccccc2)cc1F)c1c[nH]c2nccc(N[C@@H]3CC[C@@H](CO)OC3)c12` [Example 44, (2,6-difluoro-4-phenoxyphenyl)(4-(((3R,6S)-6-(hydroxymethyl)tetrahydro-2H-pyran-3-yl)amino)-1H-pyrrolo[2,3-b]pyridin-3-yl)methanone]: 7 nM; `N#Cc1cnc2[nH]cc(C(=O)c3c(F)cc(Oc4ccccc4)cc3F)c2c1N[C@@H]1CC[C@@H](CO)OC1` [Example 45, 3-(2,6-difluoro-4-phenoxybenzoyl)-4-(((3R,6S)-6-(hydroxymethyl)tetrahydro-2H-pyran-3-yl)amino)-1H-pyrrolo[2,3-b]pyridine-5-carbonitrile]: 57 nM; `Cc1cc(Oc2ccccc2F)ccc1C(=O)c1c[nH]c2nccc(N[C@@H]3CC[C@@H](CO)OC3)c12` [Example 46, (4-(2-fluorophenoxy)-2-methylphenyl)(4-(((3R,6S)-6-(hydroxymethyl)tetrahydro-2H-pyran-3-yl)amino)-1H-pyrrolo[2,3-b]pyridin-3-yl)methanone]: 1 nM.
For `Cc1cc(Oc2cccc(F)c2)ccc1C(=O)c1c[nH]c2nccc(N[C@@H]3CC[C@@H](CO)OC3)c12` [Example 47, (4-(3-fluorophenoxy)-2-methylphenyl)(4-(((3R,6S)-6-(hydroxymethyl)tetrahydro-2H-pyran-3-yl)amino)-1H-pyrrolo[2,3-b]pyridin-3-yl)methanone] the value was 46 nM.
For `Cc1cc(Oc2ccccc2F)ccc1C(=O)c1c[nH]c2ncc(C#N)c(N[C@@H]3CC[C@@H](CO)OC3)c12` [Example 48, 3-(4-(2-fluorophenoxy)-2-methylbenzoyl)-4-(((3R,6S)-6-(hydroxymethyl)tetrahydro-2H-pyran-3-yl)amino)-1H-pyrrolo[2,3-b]pyridine-5-carbonitrile] the value was 1 nM; for `Cc1cc(Oc2cccc(F)c2)ccc1C(=O)c1c[nH]c2ncc(C#N)c(N[C@@H]3CC[C@@H](CO)OC3)c12` [Example 49, 3-(4-(3-fluorophenoxy)-2-methylbenzoyl)-4-(((3R,6S)-6-(hydroxymethyl)tetrahydro-2H-pyran-3-yl)amino)-1H-pyrrolo[2,3-b]pyridine-5-carbonitrile], 100 nM; for `O=C(c1ccc(Oc2ccccc2)cc1F)c1c[nH]c2ncc(F)c(N[C@@H]3CC[C@@H](CO)OC3)c12` [Example 58, (5-fluoro-4-(((3R,6S)-6-(hydroxymethyl)tetrahydro-2H-pyran-3-yl)amino)-1H-pyrrolo[2,3-b]pyridin-3-yl)(2-fluoro-4-phenoxyphenyl)methanone], 23 nM.
The molecule `CCOc1cnc2[nH]cc(C(=O)c3ccc(Oc4ccccc4F)cc3C)c2c1N[C@@H]1CC[C@@H](CO)OC1` [Example 64, (5-ethoxy-4-(((3R,6S)-6-(hydroxymethyl)tetrahydro-2H-pyran-3-yl)amino)-1H-pyrrolo[2,3-b]pyridin-3-yl)(4-(2-fluorophenoxy)-2-methylphenyl)methanone] registered an IC50 of 1 nM.
Take `CCOc1cnc2[nH]cc(C(=O)c3ccc(Oc4ccccc4F)cc3Cl)c2c1N[C@@H]1CC[C@@H](CO)OC1` [Example 65, (2-chloro-4-(2-fluorophenoxy)phenyl)(5-ethoxy-4-(((3R,6S)-6-(hydroxymethyl)tetrahydro-2H-pyran-3-yl)amino)-1H-pyrrolo[2,3-b]pyridin-3-yl)methanone]: half-maximal inhibition (IC50) required 1 nM. This lies in the single-digit nanomolar range.
In turn, `COc1cnc2[nH]cc(C(=O)c3ccc(Oc4ccccc4F)cc3)c2c1N[C@@H]1CC[C@@H](CO)OC1` [Example 73, (4-(2-fluorophenoxy)phenyl)(4-(((3R,6S)-6-(hydroxymethyl)tetrahydro-2H-pyran-3-yl)amino)-5-methoxy-1H-pyrrolo[2,3-b]pyridin-3-yl)methanone] registered a half-maximal inhibitory concentration (IC50) of 1 nM.
